Experimental data from ChEMBL document CHEMBL1141035, “Synthesis and antidepressant activity of some 1,3,5-triphenyl-2-pyrazolines and 3-(2''-hydroxy naphthalen-1''-yl)-1,5-diphenyl-2-pyrazolines” (2005).
Where “and” joins values, the source holds several entries; their conditions need not be identical. Equal values may be shown once.

Assays:
Mus musculus [1] = experiment: Antidepressant activity determined by duration of immobility after intraperitoneal administration at 100 mg/kg in mice; assay type: functional
Mus musculus [2] = experiment: Antidepressant activity determined by percentage change from control after intraperitoneal administration at 100 mg/kg in mice; n = 6; assay type: functional

SMILES	Activity (Mus musculus [1]) [s]	Activity (Mus musculus [2]) [%]	Activity (Mus musculus [1]; 100 mg/kg)
CN(C)c1ccc(C2CC(c3ccccc3)=NN2c2ccccc2)cc1 (stereo unspecified)	22.95	-59.25	
Oc1ccc2ccccc2c1C1=NN(c2ccccc2)C(c2ccccc2)C1 (stereo unspecified)	50.33	-10.63	
COc1cc(C2CC(c3c(O)ccc4ccccc34)=NN2c2ccccc2)cc(OC)c1OC (stereo unspecified)	49.26	-12.53	
Oc1ccc(C2=NN(c3ccccc3)C(c3cccc(Br)c3)C2)cc1 (stereo unspecified)	32.46	-42.18	
CN(C)c1ccc(C2CC(c3ccccc3O)=NN2c2ccccc2)cc1 (stereo unspecified)	35.85	-36.34	
Cc1ccc(C2=NN(c3ccccc3)C(c3ccc(N(C)C)cc3)C2)cc1 (stereo unspecified)	50.15	-10.95	
Oc1ccc2ccccc2c1C1=NN(c2ccccc2)C(c2ccc(Br)cc2)C1 (stereo unspecified)	25.4	-54.1	
Oc1ccc2ccccc2c1C1=NN(c2ccccc2)C(c2ccc(Cl)cc2)C1 (stereo unspecified)	46.28	-17.82	
COc1ccc(C2CC(c3c(O)ccc4ccccc34)=NN2c2ccccc2)cc1 (stereo unspecified)	50.78	-9.83	
CN(C)c1ccc(C2CC(c3ccc(Br)cc3)=NN2c2ccccc2)cc1 (stereo unspecified)	41.88	-25.63	
CN(C)CCCN1c2ccccc2CCc2ccc(Cl)cc21 [CLOMIPRAMINE]			33.81 s and 18.68 s
